“And” between values parts separate entries of the source, which are not always exact repeats. Equal values may be shown once.
Key:
PIK3CG (human) = PIK3CG (human) (UniProt P48736); assay: Inhibition of PIK3CG Kinase Assay
PIK3CB = PIK3CB (UniProt P42338); assay: Inhibition of PIK3CB Kinase Assay
PIK3CB, sequence (P42338 whole entry, looked up): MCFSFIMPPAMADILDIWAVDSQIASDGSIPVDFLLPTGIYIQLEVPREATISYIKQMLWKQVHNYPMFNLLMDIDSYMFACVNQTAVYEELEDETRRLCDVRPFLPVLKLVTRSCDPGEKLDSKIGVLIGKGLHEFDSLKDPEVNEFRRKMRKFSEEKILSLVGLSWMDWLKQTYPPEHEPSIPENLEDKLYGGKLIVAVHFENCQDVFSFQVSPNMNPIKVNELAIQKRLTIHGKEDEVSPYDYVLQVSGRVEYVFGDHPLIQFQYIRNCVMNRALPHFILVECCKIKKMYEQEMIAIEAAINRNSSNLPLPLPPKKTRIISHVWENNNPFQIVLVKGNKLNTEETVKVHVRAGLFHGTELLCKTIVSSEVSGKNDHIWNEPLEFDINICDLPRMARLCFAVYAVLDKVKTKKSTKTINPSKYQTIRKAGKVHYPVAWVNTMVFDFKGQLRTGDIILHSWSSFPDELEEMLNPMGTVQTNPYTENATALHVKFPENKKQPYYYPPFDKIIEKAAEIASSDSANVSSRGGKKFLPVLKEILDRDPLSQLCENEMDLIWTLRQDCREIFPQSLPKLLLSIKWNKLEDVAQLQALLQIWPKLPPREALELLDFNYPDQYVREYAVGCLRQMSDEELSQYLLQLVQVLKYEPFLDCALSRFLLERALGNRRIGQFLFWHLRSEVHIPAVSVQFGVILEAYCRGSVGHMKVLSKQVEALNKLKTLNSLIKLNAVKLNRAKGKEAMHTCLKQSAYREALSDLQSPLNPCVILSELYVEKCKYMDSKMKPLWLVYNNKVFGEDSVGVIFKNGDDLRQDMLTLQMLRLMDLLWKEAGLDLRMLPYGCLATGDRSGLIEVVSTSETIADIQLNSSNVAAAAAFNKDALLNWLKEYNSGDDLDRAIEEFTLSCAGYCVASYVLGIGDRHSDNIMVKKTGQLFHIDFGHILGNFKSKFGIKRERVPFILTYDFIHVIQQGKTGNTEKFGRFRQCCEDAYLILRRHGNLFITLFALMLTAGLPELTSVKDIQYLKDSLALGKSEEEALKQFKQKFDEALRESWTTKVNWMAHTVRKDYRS

PIK3CG (human), sequence (P48736 whole entry, looked up): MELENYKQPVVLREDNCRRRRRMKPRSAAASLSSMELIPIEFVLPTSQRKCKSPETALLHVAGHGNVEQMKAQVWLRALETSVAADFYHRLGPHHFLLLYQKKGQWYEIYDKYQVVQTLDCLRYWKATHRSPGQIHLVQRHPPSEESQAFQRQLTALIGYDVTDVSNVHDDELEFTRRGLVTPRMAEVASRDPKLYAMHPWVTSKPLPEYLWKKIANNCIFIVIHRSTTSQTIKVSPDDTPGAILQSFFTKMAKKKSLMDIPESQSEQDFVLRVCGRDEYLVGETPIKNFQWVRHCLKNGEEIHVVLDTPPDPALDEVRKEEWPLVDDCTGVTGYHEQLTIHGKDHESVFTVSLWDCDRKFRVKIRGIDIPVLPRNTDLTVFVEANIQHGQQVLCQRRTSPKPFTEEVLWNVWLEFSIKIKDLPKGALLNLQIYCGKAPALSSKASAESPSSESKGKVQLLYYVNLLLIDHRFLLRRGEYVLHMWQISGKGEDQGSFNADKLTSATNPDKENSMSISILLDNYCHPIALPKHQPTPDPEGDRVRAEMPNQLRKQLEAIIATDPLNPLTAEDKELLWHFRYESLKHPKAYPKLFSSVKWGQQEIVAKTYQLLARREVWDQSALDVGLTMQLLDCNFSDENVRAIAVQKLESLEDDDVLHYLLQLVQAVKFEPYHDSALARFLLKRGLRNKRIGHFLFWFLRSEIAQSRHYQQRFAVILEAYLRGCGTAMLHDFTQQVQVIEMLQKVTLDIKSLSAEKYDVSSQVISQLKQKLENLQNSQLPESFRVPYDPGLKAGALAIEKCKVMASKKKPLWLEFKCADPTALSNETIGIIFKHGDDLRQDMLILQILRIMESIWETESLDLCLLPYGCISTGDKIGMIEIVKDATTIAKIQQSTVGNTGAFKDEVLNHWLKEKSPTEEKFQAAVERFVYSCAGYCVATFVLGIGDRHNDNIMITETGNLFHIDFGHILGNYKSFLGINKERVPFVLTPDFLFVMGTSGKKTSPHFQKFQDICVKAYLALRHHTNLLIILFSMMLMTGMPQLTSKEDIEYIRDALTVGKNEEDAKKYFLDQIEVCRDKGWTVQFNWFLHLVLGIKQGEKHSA

IC50 (PIK3CG (human)) [nM] | IC50 (PIK3CB) | SMILES
≤ 100 | 500 to 2000 nM | COc1cc2c(cc1OC)C1=NCCN1C(/C=C(\O)c1cccnc1)=N2
 | 500 to 2000 nM | COc1c(O)ccc2c1N=C(/C=C(\O)c1cccnc1)N1CCN=C21
 | 500 to 2000 nM | COC(=O)CCCOc1ccc2c(c1OC)N=C(/C=C(\O)c1cccnc1)N1CCN=C21
≤ 100 | 100 to 500 nM | COc1c(OCCCC(=O)N2CCOCC2)ccc2c1N=C(/C=C(\O)c1cccnc1)N1CCN=C21
100 to 500 | 100 to 500 nM | O=C(NC1=Nc2cc(OCCn3cccc3)ccc2C2=NCCN12)c1cccnc1
≤ 100 | 100 to 500 nM | COc1c(OCCCC(=O)O)ccc2c1N=C(/C=C(\O)c1cccnc1)N1CCN=C21
100 to 500 | 500 to 2000 nM | O=C(NC1=Nc2cc(O)ccc2C2=NCCN12)c1cccnc1
100 to 500 |  | O=C(NC1=Nc2ccccc2C2=NCCN12)c1c[nH]cn1
> 2000 |  | O=C(NC1=Nc2ccccc2C2=NCCN12)c1ccc([N+](=O)[O-])s1
500 to 2000 |  | O=C(NC1=Nc2ccc(F)cc2C2=NCCN12)c1cccs1
≤ 100 |  | COc1ccc2c(c1OCCN1CCOCC1)N=C(/C=C(\O)c1cccnc1)N1CCN=C21
100 to 500 |  | O=C(NC1=Nc2ccc(Br)cc2C2=NCCN12)c1cccnc1
> 2000 |  | COc1cc(C(=O)NC2=Nc3ccccc3C3=NCCN23)cc(OC)c1C
100 to 500 |  | O/C(=C\C1=Nc2c(OCCN3CCOCC3)cccc2C2=NCCN12)c1cccnc1
≤ 100 |  | COc1cc(OC)c2c(c1)C1=NCCN1C(NC(=O)c1ccc3[nH]cnc3c1)=N2
> 2000 |  | O/C(=C\C1=Nc2ccccc2C2=NCCN12)c1csc2ccccc12

IC50 (PIK3CG (human)) [nM] | IC50 (PIK3CB) | SMILES
≤ 100 |  | O=C(NC1=Nc2c(cccc2C(F)(F)F)C2=NCCN12)c1ccc2[nH]cnc2c1
≤ 100 |  | O=C(NC1=Nc2ccccc2C2=NCCN12)c1cncc(O)c1
≤ 100 |  | O=C(NC1=Nc2cc(N3CCOCC3)ccc2C2=NCCN12)c1cncc(O)c1
≤ 100 |  | Cc1ccc2c(c1)N=C(NC(=O)c1cccnc1)N1CCN=C21
100 to 500 |  | COc1cc2c(cc1OC)C1=NCCN1C(/C=C(\O)c1cccs1)=N2
100 to 500 |  | Cc1ccc2c(c1OCCN1CCOCC1)N=C(/C=C(\O)c1cccnc1)N1CCN=C21
≤ 100 |  | COc1ccc2c(c1)N=C(NC(=O)c1ccc(N)nc1)N1CCN=C21
500 to 2000 |  | O=C(NC1=Nc2ccccc2C2=NCCN12)c1ccccn1
> 2000 |  | O=C(NC1=Nc2ccccc2C2=NCCN12)c1ccc(-n2cccn2)cc1
100 to 500 |  | Cc1cccc2c1N=C(/C=C(\O)c1cccnc1)N1CCN=C21
100 to 500 |  | CC(=O)Nc1ccc(/C(O)=C/C2=Nc3cc(CN4CCOCC4)ccc3C3=NCCN23)cn1
> 2000 |  | O=C(NC1=Nc2ccccc2C2=NCCN12)c1ccc(-n2ccnc2)cc1
100 to 500 |  | O=C(NC1=Nc2cc(OCCOCCO)ccc2C2=NCCN12)c1cccnc1
100 to 500 |  | O=C(NC1=Nc2cc(N3CCCCC3)ccc2C2=NCCN12)c1cccnc1
≤ 100 |  | CC(=O)NC1CCN(c2ccc3c(c2)N=C(/C=C(\O)c2cccnc2)N2CCN=C32)C1 (stereo not given)

SMILES | IC50 (PIK3CG (human)) [nM] | IC50 (PIK3CB)
O=C(NC1=Nc2ccccc2C2=NCCN12)c1cccnc1 | ≤ 100 | 100 to 500 nM
CC(=O)Nc1ccc(C(=O)NC2=Nc3cc(N4CCOCC4)ccc3C3=NCCN23)cn1 | ≤ 100 | 500 to 2000 nM and 100 to 500 nM

From the Kinase Knowledgebase extract (Sharma et al. 2016)
